Assay [1] has as its system KMS-11. As to the kind of experiment: Antiproliferative activity against human KMS11 cells over-expressing GFP after 72 hrs by CellTiter-Glo assay. It counts as functional, cell-based. Particulars: KMS-11, 72 h.
The target in assay [2] is T1, Solute carrier family 2, facilitated glucose transporter member 4 (Homo sapiens, UniProt P14672).
T1 sequence (P14672 whole entry): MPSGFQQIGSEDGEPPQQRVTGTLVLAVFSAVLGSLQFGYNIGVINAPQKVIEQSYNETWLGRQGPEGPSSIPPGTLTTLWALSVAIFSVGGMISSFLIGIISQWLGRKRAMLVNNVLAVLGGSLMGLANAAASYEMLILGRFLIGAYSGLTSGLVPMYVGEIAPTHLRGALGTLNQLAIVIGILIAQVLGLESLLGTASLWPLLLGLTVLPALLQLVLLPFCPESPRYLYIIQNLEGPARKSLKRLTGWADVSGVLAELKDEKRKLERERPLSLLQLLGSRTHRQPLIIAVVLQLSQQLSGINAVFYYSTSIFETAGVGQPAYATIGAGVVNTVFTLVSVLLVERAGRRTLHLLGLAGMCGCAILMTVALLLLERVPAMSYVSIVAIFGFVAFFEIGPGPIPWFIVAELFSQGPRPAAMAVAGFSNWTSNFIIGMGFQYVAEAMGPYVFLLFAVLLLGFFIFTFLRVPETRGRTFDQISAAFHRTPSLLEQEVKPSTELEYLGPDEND
As to the kind of experiment: Antagonist activity at human GLUT4 expressed in HEK293 cells transfected with GLUT1 shRNA assessed as inhibition of [3H]2-deoxy-D-glucose uptake preincubated for 5 mins followed by [3H]2-deoxy-D-glucose addition and measured after 6 mins. It counts as cell-based.

Assay [3] concerns the target T2, Solute carrier family 2, facilitated glucose transporter member 8 (Homo sapiens, UniProt Q9NY64).
T2 sequence (Q9NY64 whole entry): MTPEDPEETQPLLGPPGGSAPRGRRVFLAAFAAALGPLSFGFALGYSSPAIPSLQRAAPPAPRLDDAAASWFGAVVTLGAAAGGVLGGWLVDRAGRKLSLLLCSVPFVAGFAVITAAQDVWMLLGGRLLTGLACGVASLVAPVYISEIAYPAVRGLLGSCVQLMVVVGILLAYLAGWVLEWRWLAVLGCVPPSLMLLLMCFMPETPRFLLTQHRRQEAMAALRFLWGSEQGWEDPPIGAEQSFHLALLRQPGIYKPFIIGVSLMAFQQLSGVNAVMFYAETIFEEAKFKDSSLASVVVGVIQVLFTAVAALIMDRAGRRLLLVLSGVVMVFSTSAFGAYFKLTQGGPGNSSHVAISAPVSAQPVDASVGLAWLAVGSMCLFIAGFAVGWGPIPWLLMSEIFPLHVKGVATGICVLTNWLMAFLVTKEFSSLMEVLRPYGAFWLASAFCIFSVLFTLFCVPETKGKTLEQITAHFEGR
As to the kind of experiment: Antagonist activity at human GLUT8 expressed in HEK293 cells transfected with GLUT1 shRNA assessed as inhibition of [3H]2-deoxy-D-glucose uptake preincubated for 5 mins followed by [3H]2-deoxy-D-glucose addition and measured after 6 mins. The class given is cell-based.

For assay [4], the target named is T3, Solute carrier family 2, facilitated glucose transporter member 1 (Homo sapiens, UniProt P11166).
T3 sequence (P11166 whole entry): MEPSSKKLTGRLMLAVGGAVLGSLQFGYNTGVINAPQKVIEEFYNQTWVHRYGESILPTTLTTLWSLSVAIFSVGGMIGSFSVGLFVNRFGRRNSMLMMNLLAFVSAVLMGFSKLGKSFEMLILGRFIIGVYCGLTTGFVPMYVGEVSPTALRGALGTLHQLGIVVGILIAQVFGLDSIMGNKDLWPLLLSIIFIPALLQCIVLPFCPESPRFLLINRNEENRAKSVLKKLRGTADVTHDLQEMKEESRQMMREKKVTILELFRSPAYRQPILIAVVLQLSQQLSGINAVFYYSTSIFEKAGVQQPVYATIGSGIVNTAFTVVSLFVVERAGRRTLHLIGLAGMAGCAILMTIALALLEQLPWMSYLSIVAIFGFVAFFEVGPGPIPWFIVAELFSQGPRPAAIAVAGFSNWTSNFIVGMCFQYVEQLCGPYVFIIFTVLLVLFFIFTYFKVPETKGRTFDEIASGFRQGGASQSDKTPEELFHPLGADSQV
As to the kind of experiment: Antagonist activity at human GLUT1 expressed in HEK293 cells transfected with GLUT1 shRNA assessed as inhibition of [3H]2-deoxy-D-glucose uptake preincubated for 5 mins followed by [3H]2-deoxy-D-glucose addition and measured after 6 mins. The class given is cell-based.

For assay [5], the target named is T4, Solute carrier family 2, facilitated glucose transporter member 4 (Rattus norvegicus) (UniProt P19357).
T4 sequence (whole entry): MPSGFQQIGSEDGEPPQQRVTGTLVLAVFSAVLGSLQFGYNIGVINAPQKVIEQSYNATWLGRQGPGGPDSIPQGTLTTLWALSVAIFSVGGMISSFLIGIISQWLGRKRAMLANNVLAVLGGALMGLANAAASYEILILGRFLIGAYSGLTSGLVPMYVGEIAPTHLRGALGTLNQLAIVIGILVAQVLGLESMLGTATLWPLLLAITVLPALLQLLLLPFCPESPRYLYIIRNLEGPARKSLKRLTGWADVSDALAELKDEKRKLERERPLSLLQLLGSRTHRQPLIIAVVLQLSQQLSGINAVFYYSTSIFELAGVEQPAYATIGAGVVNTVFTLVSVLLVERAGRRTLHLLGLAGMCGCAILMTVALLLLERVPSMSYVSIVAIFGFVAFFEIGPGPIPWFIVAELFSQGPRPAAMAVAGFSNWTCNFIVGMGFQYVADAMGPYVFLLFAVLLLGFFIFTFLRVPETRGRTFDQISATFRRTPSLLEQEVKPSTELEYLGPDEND
Kind of assay: Displacement of ATB-BMPA from rat C-terminal 6His/Myc-tagged GLUT4 expressed in HEK293 cell low density microsome at 20 uM preincubated for 10 mins followed by ATB-BMPA addition measured after 10 mins. It counts as cell-based.

The target in assay [6] is T5, Solute carrier family 2, facilitated glucose transporter member 1 (Rattus norvegicus) (UniProt P11167).
T5 sequence (whole entry): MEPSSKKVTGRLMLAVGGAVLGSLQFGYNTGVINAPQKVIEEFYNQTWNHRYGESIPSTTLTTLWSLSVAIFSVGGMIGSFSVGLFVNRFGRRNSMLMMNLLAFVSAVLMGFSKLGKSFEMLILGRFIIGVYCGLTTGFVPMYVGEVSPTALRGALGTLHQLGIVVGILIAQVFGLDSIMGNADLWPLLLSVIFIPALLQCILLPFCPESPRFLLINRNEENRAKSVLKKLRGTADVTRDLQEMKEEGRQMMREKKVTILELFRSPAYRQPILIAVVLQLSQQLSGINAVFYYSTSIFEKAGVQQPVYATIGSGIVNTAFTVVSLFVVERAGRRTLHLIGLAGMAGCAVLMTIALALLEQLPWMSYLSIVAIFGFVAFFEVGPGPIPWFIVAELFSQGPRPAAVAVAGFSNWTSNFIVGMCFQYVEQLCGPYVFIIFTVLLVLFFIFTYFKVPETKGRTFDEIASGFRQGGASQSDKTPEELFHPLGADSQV
As to the kind of experiment: Displacement of ATB-BMPA from rat C-terminal 6His/Myc-tagged GLUT1 expressed in HEK293 cell low density microsome at 20 uM preincubated for 10 mins followed by ATB-BMPA addition measured after 10 mins. It counts as cell-based.

The target of assay [7] is T6, Solute carrier family 2, facilitated glucose transporter member 4 (Rattus norvegicus, UniProt P19357).
T6 sequence (P19357 whole entry): T4 sequence (whole entry)
As to the kind of experiment: Antagonist activity at GLUT4 in rat adipocytes assessed as reduction in insulin-stimulated [3H]2-deoxyglucose uptake preincubated for 1 min followed by [3H]2-deoxyglucose addition measured after 1 min by liquid scintillation counting analysis. It counts as cell-based.

Consider 18 compounds from ChEMBL document CHEMBL4130400, “Development of GLUT4-selective antagonists for multiple myeloma therapy” (Eur J Med Chem, 2017).

Calls of active or inactive are those of the source. The rule behind the calls is not given here. Where a SMILES comes first, the peptide text is derived from it. The star is where a group is joined. Cbz = O=C(OCc1ccccc1)* Some results are limits rather than exact numbers.

The compound `COc1ccc(C(=O)N(Cc2ccncc2)Cc2cccc(OCc3cccc([N+](=O)[O-])c3)c2)cc1` registered an IC50 in assay [1] of 19.6 µM.
`COc1ccc(C(=O)N(Cc2ccncc2)Cc2cccc(OCCc3ccccc3)c2)cc1` had a concentration for half-maximal inhibition (IC50) in assay [1] of 16.9 µM.
For `COc1ccc(C(=O)N(Cc2ccncc2)Cc2cccc(OCCc3ccc(Br)cc3)c2)cc1`, the IC50 in assay [1] is 8.4 µM.
`COc1ccc(C(=O)N(Cc2ccncc2)Cc2cccc(OCCc3cccc(C(F)(F)F)c3)c2)cc1`: the midpoint of inhibition in assay [1], the IC50, lay at 8.9 µM.
In assay [1], `COc1ccc(C(=O)N(Cc2ccncc2)Cc2cccc(OCC3CCCCC3)c2)cc1` returned a half-maximal inhibitory concentration (IC50) of 19.7 µM.
The same measure, in the same setting: the figure for `COc1ccc(C(=O)N(Cc2ccncc2)Cc2cccc(OCC(=O)c3cccc(Br)c3)c2)cc1` is 18.7 µM; for `COc1ccc(C(=O)N(Cc2ccncc2)Cc2cccc(OCCc3ccc(C)cc3)c2)cc1` it is 9.1 µM.
For the compound `Oc1cccc(CNCc2ccncc2)c1`, the IC50 in assay [2] is 20 µM; in assay [3], greater than 100 µM; in assay [4] it was greater than 100 µM.
`COc1ccc(C(=O)N(Cc2ccncc2)Cc2cccc(OCc3cccc(OC)c3)c2)cc1`: the figures for the 50% inhibitory concentration (IC50) in assay [2] and in assay [1] were 11 µM and 16.9 µM, respectively.
In assay [1], `COc1ccc(C(=O)N(Cc2ccncc2)Cc2cccc(OCC3CCOCC3)c2)cc1` came in with a 50% inhibitory concentration (IC50) of 17.7 µM.
The compound `COc1ccc(C(=O)N(Cc2ccncc2)Cc2cccc(OCc3ccc([N+](=O)[O-])cc3)c2)cc1` had an IC50 in assay [1] of 15.4 µM.
Turning to `COc1ccc(C(=O)N(Cc2ccncc2)Cc2cccc(OCCc3ccc(F)cc3)c2)cc1`, the results for the IC50 in assay [2], in assay [3] and in assay [4] were 1.7 µM, 6 µM and greater than 100 µM, respectively. The result in assay [5] and in assay [6] was Active.
Turning to `CCOC(=O)[C@H](Cc1ccccc1)NC(=O)[C@H](Cc1ccccc1)NC(=O)[C@H](Cc1cnc[nH]1)NC(=O)OCc1ccccc1` (Cbz-His-Phe-Phe-OEt), the inhibition constant Ki in assay [7] came to 26 µM.
With `O=C(c1ccc(Cl)cc1)N(Cc1ccncc1)Cc1cccc(OCCc2ccc(F)cc2)c1`, in assay [1], the IC50 came out at 13.1 µM.
`COc1ccc(C(=O)N(Cc2ccncc2)Cc2cccc(OCC3CCN(C(=O)OC(C)(C)C)CC3)c2)cc1` returned an IC50 in assay [1] of 5.1 µM.
On the same count and under the same terms, the figure for `COc1ccc(C(=O)N(Cc2ccncc2)Cc2cccc(OCc3ccc(C(F)(F)F)cc3)c2)cc1` is 14.3 µM; for `COc1ccc(C(=O)N(Cc2ccncc2)Cc2cccc(OCc3ccc(F)cc3)c2)cc1` it is 22.7 µM.
On to `COc1ccc(C(=O)N(Cc2ccncc2)Cc2cccc(OCC(=O)c3ccc(Cl)cc3)c2)cc1`, for which, in assay [1], half-maximal inhibition (IC50) required 18.5 µM.
